The target of one assay is T1, LTD4 receptor (Cavia porcellus, UniProt Q2NNR5).
T1 construct: from tissue; host or cells: guinea-pig lung membranes
T1 sequence (Q2NNR5 1-340): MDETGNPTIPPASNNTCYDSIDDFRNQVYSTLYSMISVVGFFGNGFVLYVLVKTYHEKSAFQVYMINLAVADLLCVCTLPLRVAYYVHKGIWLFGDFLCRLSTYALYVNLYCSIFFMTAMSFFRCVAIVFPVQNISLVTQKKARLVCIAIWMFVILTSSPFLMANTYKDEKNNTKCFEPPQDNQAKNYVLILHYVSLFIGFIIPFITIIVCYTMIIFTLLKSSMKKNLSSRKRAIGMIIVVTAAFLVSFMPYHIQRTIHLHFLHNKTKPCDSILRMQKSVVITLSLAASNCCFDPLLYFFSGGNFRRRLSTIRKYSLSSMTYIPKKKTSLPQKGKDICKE
The experiment in a line: Receptor binding: direct competition with [^3 H]LTD4 on guinea-pig lung membranes. Particulars: mean ± SD (n) or individual values. The method, then: It is of importance to investigate the receptor binding properties of leukotriene antagonists in relation to their inhibition of smooth muscle contraction. Receptor binding studies may be performed with guinea-pig lung membranes in a direct competition assay between a leukotrien antagonist and [^3 H]LTD4 for binding to the LTD4 receptor^3,4. A pIC50 value is determined as the negative logarithm of the molar concentration of antagonist inhibiting [^3 H]LTD4 binding by 50%. The pIC50 values for the compounds of the present invention are equal to or higher than those for the reference compound SR3040^5 (see Table I)

The subject of assay [1] is LTD4-induced bronchoconstriction. The experiment in a line: LTD4-induced bronchoconstriction in anaesthetized guinea-pigs. Type of assay: in vivo, guinea-pig. The settings on record: Cavia porcellus. The method, then:
The leukotriene antagonistic effect was tested in vivo on LTD4 -induced bronchoconstriction in anaesthetized guinea-pigs^3. […] The ED50 values represent the dose inhibiting the leukotriene induced bronchoconstriction by 50%. The ED50 values were calculated by regression analysis of 2-3 doses.

The mark [2] stands for this setting: absence of albumin, read-out: pIC50, binding of [^3 H]LTD4, absence of albumin (converted).
Where [3] appears, read: presence of 0.1% human serum albumin, read-out: pIC50, binding of [^3 H]LTD4, presence of albumin (converted).
The mark [4] stands for this setting: iv, 10 min, i.v., 10 min before bronchoconstriction.
The mark [5] stands for this setting: po, 4 h before bronchoconstriction.
Setting [6] is: po, 24 h before bronchoconstriction.
The mark [7] stands for this setting: po, 48 h before bronchoconstriction.

Where “and” joins values, the source holds several entries; their conditions need not be identical. Equal entries are not always repeated. Where two headings read alike, the source gives them in different places.

Broadly, the ED50 is the midpoint of the dose-response relation. A high value points to weaker potency.

Regarding `OC[C@H](O)[C@H](Nc1cccc(/C=C/c2ccc3ccc(Cl)cc3n2)c1)c1ccccc1` [Example 3], the IC50 was 5.01 nM and 6.31 nM at LTD4 receptor (setting [2]); 3.98 nM and 2.51 nM on LTD4 receptor (setting [3]). Further, the ED50 in assay [1] (setting [4]) is 0.3 mg/kg; in assay [1] (setting [5]), 0.956 mg/kg; in assay [1] (setting [6]), 20.3 mg/kg.
As for `OC[C@@H](O)[C@@H](Nc1cccc(/C=C/c2ccc3ccc(Cl)cc3n2)c1)c1ccccc1` [Example 4], the IC50 on LTD4 receptor (setting [2]) is 3.98 nM; at LTD4 receptor (setting [3]), 1.26 nM and 2 nM. The ED50 in assay [1] (setting [4]) was 0.35 mg/kg; in assay [1] (setting [5]) it was 3.63 mg/kg; in assay [1] (setting [6]) it was 8.66 mg/kg; in assay [1] (setting [7]) it was over 30 mg/kg.
As for `OC[C@H](O)[C@H](Nc1cccc(/C=C/c2ccc3ccc(F)cc3n2)c1)c1ccccc1` [Example 5], the IC50 on LTD4 receptor (setting [2]) is 3.98 nM; on LTD4 receptor (setting [3]), 2.51 nM.
As for `OC[C@@H](O)[C@@H](Nc1cccc(/C=C/c2ccc3ccc(F)cc3n2)c1)c1ccccc1` [Example 6], the IC50 at LTD4 receptor (setting [2]) and at LTD4 receptor (setting [3]) was 1.58 nM throughout.
Take `OC[C@H](O)[C@H](Nc1cccc(/C=C/c2ccc3cc(F)c(F)cc3n2)c1)c1ccccc1` [Example 7, (+)-2R,3R-E-3-N-[3-2-(6,7-difluoroquinolin-2-yl)ethenyl]-phenylamino-3-phenyl-1,2-propandiol]: the IC50 at LTD4 receptor (setting [2]) was 1.58 nM; on LTD4 receptor (setting [3]) it was 0.794 nM. Further, the ED50 is 0.058 mg/kg in assay [1] (setting [4]); 1.64 mg/kg in assay [1] (setting [5]); 4.64 mg/kg in assay [1] (setting [6]); 9.73 mg/kg in assay [1] (setting [7]); over 30 mg/kg in assay [1] (po, 72 h before bronchoconstriction).
As to `OC[C@@H](O)[C@@H](Nc1cccc(/C=C/c2ccc3cc(F)c(F)cc3n2)c1)c1ccccc1` [Example 8], the IC50 at LTD4 receptor (setting [2]) was 1 nM; at LTD4 receptor (setting [3]) it was 0.501 nM. For the same compound, the 50% effective dose (ED50) in assay [1] (setting [4]) was 0.18 mg/kg; in assay [1] (setting [6]), 14.9 mg/kg; in assay [1] (setting [7]), over 30 mg/kg.

(Values after patent publication US5945433A, “Quinoline derivatives containing a diol as leukotriene antagonists” (Leo Pharmaceutical Products, Ltd. A/S, priority 1995, dated 1999).)
